Series [1] addresses T1, Renin (Homo sapiens, UniProt P00797).
T1 sequence (P00797 whole entry): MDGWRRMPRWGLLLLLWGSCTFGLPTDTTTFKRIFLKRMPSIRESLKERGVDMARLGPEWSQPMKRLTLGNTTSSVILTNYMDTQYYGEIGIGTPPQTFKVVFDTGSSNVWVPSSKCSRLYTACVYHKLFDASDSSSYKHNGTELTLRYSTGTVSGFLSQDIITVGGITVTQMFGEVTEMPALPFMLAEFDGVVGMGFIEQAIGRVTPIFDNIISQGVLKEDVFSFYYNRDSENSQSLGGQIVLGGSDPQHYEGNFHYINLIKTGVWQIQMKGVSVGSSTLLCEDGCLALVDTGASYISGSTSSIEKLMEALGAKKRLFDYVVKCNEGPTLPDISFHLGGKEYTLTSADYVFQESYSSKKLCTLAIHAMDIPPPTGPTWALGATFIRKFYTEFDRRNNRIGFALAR
Nature of the series: In vitro inhibition of purified human kidney renin.

For series [2], the target named is T1, Renin. The series can be described thus: In vitro inhibition of renin in human plasma. It counts as cell-free.
The nature of series [3]: Half-life was determined. Format: ADME. The conditions noted are these: human.
In a further series the target is T2, Gastricsin (Homo sapiens, UniProt P20142).
T2 sequence (P20142 whole entry): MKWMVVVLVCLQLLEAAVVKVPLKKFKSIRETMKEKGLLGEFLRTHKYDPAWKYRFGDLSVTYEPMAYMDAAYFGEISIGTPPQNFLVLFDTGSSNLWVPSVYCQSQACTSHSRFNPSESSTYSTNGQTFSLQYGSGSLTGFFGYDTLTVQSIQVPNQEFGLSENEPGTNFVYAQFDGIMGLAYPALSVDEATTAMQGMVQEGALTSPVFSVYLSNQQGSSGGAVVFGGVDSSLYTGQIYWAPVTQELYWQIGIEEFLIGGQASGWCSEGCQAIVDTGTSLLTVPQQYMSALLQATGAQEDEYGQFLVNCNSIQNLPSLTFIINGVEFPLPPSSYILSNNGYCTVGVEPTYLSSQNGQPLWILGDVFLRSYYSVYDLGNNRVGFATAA
Nature of the series: Selectivity against human gastricsin.

Another series deals with Pepsin A (Homo sapiens, UniProt P0DJD9). Nature of the series: Selectivity against human pepsin.
Chain of Pepsin A (P0DJD9 whole entry): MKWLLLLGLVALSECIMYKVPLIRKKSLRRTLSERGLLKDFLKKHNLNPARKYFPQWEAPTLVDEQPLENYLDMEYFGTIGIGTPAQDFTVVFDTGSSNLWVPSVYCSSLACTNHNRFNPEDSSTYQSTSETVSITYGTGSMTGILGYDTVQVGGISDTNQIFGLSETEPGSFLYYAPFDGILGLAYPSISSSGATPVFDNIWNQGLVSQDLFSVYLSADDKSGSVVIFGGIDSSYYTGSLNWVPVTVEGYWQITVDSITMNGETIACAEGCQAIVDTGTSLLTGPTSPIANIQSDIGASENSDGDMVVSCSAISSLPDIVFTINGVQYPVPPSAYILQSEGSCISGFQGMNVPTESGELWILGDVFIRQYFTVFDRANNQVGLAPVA
A further series concerns the target Cathepsin D (Homo sapiens, UniProt P07339). The series can be described thus: Selectivity against human cathepsin D.
The target of a further series is T3, Cathepsin E (Homo sapiens, UniProt P14091).
T3 sequence (P14091 whole entry): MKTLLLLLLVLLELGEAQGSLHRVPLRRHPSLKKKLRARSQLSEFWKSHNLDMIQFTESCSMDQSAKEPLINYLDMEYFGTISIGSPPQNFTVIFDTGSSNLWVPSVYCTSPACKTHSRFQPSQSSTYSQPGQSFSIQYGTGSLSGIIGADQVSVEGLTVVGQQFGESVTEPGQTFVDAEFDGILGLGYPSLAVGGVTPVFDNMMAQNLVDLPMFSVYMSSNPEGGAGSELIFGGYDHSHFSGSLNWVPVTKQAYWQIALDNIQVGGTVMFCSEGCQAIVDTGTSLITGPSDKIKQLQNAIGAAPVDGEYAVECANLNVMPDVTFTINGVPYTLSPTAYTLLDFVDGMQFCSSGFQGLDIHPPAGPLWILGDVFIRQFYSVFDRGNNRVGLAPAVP
Nature of the series: Selectivity against human cathepsin E.

Molecules are shown by their SMILES. Where only a bound is given, the exact number is not on record here.

For orientation: IC50 means the concentration that inhibits the measured activity by half. Lower therefore signals inhibition by little substance. Usually half-life stands for the time needed for the level to fall by half in the phase considered.

Chain of Cathepsin D (P07339 65-162 limits assumed): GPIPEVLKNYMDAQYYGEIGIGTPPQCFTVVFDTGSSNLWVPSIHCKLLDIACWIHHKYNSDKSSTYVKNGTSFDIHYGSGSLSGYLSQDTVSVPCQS
Chain of Cathepsin D (P07339 169-412 limits assumed): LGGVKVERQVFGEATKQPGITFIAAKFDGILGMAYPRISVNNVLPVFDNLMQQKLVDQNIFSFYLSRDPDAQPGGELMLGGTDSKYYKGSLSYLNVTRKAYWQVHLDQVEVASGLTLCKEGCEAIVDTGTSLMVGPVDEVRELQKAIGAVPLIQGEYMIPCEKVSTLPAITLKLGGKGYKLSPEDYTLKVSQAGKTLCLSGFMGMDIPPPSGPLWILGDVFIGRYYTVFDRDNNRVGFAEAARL

As for `CC(C)(C)S(=O)(=O)C[C@@H](Cc1ccccc1)C(=O)N[C@@H](Cc1c[nH]cn1)C(=O)N[C@@H](CC1CCCCC1)[C@@H](O)[C@@H](O)CCc1ccccn1`, the IC50 against Renin [1] was found to be 0.17 nM; at Renin [2], 0.43 nM. This compound came in with a half-life in series [3] of 171 min.
The like results for `O=C(N[C@@H](Cc1cnc[nH]1)C(=O)N[C@@H](CC1CCCCC1)[C@@H](O)[C@@H](O)CCc1ccccn1)[C@@H](CC(=O)N1CCOCC1)Cc1ccccc1` were, in that order, 1.1 nM, 1.1 nM and 22 min.
The like results for `NC1CCN(S(=O)(=O)C[C@@H](Cc2ccccc2)C(=O)N[C@@H](Cc2cnc[nH]2)C(=O)N[C@@H](CC2CCCCC2)[C@@H](O)[C@@H](O)CCc2ccccn2)CC1` were, in that order, 0.7 nM, 0.54 nM and around 300 min.
Turning to `CCOC(=O)CCCCC(=O)N[C@@H](Cc1ccccc1)C(=O)N[C@@H](Cc1c[nH]cn1)C(=O)N[C@@H](CC1CCCCC1)[C@@H](O)[C@@H](O)CCc1ccccn1`, the values for the IC50 at Renin [1] and against Renin [2] were 0.69 nM and 0.75 nM, respectively.
For the compound `CSC[C@H](NC(=O)[C@@H](CC(=O)N1CCC(N)CC1)Cc1ccccc1)C(=O)N[C@@H](CC1CCCCC1)[C@@H](O)[C@@H](O)CCc1ccccn1`, the half-maximal inhibitory concentration (IC50) turned out to be 0.26 nM on Renin [1] and 0.25 nM at Renin [2].
As for `N[C@H]1CC[C@@H](C(=O)N[C@@H](Cc2ccccc2)C(=O)N[C@@H](Cc2cnc[nH]2)C(=O)N[C@@H](CC2CCCCC2)[C@@H](O)[C@@H](O)CCc2ccccn2)CC1`, the IC50 on Renin [1] worked out at 0.5 nM; on Renin [2] it was 0.47 nM. In addition, the half-life in series [3] was below 3 min.
`COc1ccc(C[C@H](NC(=O)[C@H]2CC[C@@H](N)CC2)C(=O)N[C@@H](Cc2cnc[nH]2)C(=O)N[C@@H](CC2CCCCC2)[C@@H](O)[C@@H](O)CCc2ccccn2)cc1`: the IC50 against Renin [1] was 4.2 nM; at Renin [2] it was 5.3 nM. The compound also displayed a half-life in series [3] of around 90 min.
Consider `N[C@H]1CC[C@@H](S(=O)(=O)C[C@@H](Cc2ccccc2)C(=O)N[C@@H](Cc2cnc[nH]2)C(=O)N[C@@H](CC2CCCCC2)[C@@H](O)[C@@H](O)CCc2ccccn2)CC1`, for which the concentration for half-maximal inhibition (IC50) on Renin [1] and at Renin [2] was 0.31 nM in each case.
For `NC1CCN(C(=O)O[C@@H](Cc2ccccc2)C(=O)N[C@@H](Cc2cnc[nH]2)C(=O)N[C@@H](CC2CCCCC2)[C@@H](O)[C@@H](O)CCc2ccccn2)CC1`, the IC50 on Renin [1] came to 0.53 nM; on Renin [2], 0.37 nM.
Take `NC1CCN(C(=O)C[C@@H](Cc2ccccc2)C(=O)N[C@@H](Cc2c[nH]cn2)C(=O)N[C@@H](CC2CCCCC2)[C@@H](O)[C@@H](O)CCc2ccccn2)CC1`: the concentration for half-maximal inhibition (IC50) against Gastricsin, on Pepsin A, at Cathepsin D and against Cathepsin E was above 100 µM in each case. In series [3], this compound yielded a half-life of 91 min.
With `CN(CCN(C)C(=O)N1CCOCC1)C(=O)O[C@@H](Cc1ccccc1)C(=O)N[C@@H](Cc1c[nH]cn1)C(=O)N[C@@H](CC1CCCCC1)[C@@H](O)[C@@H](O)CCc1ccccn1`, the results for the IC50 at Renin [1] and on Renin [2] were 0.16 nM and 0.14 nM, respectively.
For `NC1CCN(C(=O)C[C@@H](Cc2cccc3ccccc23)C(=O)N[C@@H](Cc2cnc[nH]2)C(=O)N[C@@H](CC2CCCCC2)[C@@H](O)[C@@H](O)CCc2ccccn2)CC1`, the 50% inhibitory concentration (IC50) at Renin [1] worked out at 0.13 nM; on Renin [2], 0.79 nM.
For `CCC[C@H](NC(=O)[C@@H](CC(=O)N1CCC(N)CC1)Cc1ccccc1)C(=O)N[C@@H](CC1CCCCC1)[C@@H](O)[C@@H](O)CCc1ccccn1` the same measures were 0.68 nM and 1.3 nM.

(Values after ChEMBL document CHEMBL1127052, “Renin inhibitors containing a pyridyl amino diol derived C-terminus” (J Med Chem, 1993).)
